“And” between values parts separate entries of the source, which are not always exact repeats. Identical values can stand only once. Like-named read-outs stand apart in the source and are kept apart here.
How the values were obtained:
[1] = target: T1, Rat recombinant TRPV4 (Rattus norvegicus, UniProt Q9ERZ8); assay: cell-based; assay type: cell-based; conditions: for IC50: vs 4αPDD 1μM, read-out: TRPV4 IC50 for desensitization
T1 construct: expressed in transfected cells; host or cells: HEK293 (TRPV4-HEK-293, gift from HB Bradshaw, Indiana University)
T1 sequence (Q9ERZ8 whole entry): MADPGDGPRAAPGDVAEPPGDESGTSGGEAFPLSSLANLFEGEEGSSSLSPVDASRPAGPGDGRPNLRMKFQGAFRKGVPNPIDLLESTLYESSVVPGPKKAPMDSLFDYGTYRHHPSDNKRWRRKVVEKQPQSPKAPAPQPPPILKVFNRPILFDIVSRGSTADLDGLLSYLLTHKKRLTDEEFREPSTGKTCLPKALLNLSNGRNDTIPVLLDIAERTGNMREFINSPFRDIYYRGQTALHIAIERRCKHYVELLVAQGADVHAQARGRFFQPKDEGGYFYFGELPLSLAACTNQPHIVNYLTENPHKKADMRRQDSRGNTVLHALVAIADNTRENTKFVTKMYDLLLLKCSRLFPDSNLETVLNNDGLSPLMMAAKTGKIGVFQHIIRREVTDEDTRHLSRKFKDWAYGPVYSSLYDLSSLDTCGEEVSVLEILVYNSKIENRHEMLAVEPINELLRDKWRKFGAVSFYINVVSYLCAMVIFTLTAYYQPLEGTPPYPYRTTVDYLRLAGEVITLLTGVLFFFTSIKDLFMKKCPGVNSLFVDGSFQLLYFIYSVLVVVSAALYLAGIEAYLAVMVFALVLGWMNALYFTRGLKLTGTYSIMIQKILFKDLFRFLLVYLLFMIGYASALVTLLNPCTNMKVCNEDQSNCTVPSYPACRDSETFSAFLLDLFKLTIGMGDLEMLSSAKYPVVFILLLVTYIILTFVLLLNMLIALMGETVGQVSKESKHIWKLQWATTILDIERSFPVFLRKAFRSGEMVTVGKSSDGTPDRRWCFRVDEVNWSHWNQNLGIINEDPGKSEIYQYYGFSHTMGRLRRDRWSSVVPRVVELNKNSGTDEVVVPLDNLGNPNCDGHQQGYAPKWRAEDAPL

[2] = target: T2, A1 (h) (Homo sapiens, UniProt P30542); assay: CEREP panel; assay type: binding; conditions: for inhibition at 10 µM: read-out: % inhibition A1 (h)
T2 construct: CEREP
T2 sequence (P30542 1-326): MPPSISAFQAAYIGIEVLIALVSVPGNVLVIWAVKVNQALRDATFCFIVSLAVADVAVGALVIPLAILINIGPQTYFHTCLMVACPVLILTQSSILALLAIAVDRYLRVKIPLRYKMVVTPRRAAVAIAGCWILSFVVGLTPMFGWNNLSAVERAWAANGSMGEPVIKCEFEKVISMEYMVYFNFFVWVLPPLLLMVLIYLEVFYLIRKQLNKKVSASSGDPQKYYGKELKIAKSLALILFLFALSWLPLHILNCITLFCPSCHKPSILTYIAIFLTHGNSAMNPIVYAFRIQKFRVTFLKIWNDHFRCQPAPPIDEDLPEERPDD

[3] = target: T3, AT1 (h) (Homo sapiens, UniProt P30556); assay: CEREP panel; assay type: binding; conditions: for inhibition at 10 µM: read-out: % inhibition AT1 (h)
T3 construct: CEREP
T3 sequence (P30556 1-359): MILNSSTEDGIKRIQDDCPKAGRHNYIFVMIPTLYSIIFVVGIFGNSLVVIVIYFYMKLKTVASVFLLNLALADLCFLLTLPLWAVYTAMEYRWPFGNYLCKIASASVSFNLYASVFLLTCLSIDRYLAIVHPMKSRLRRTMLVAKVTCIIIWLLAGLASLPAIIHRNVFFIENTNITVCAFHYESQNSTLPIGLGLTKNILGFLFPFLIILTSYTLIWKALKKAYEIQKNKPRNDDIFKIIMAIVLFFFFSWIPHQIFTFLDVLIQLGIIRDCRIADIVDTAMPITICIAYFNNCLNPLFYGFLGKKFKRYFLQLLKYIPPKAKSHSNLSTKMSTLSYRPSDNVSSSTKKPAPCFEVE

[4] = 1 μM
[5] = target: hCB2R (Homo sapiens, UniProt P34972); assay: cell-based; assay type: cell-based; parameters: expressed in transfected cells; host or cells: Flp-In-293 (Invitrogen #R750-07), pcDNA5/FRT
hCB2R, sequence (P34972 whole entry): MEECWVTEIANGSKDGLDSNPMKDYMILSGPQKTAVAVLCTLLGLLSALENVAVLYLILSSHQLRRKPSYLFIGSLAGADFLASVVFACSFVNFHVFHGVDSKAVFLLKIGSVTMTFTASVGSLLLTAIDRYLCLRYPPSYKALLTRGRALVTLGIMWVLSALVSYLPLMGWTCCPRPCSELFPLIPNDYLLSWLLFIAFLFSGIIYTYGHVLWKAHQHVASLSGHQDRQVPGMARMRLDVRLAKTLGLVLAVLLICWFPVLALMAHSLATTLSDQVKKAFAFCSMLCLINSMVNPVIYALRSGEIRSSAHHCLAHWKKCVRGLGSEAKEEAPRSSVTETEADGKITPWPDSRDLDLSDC

[6] = target: T4, FAAH (Homo sapiens, UniProt O00519); assay: FAAH activity, U937 cell homogenate; assay type: biochemical; conditions: for inhibition at 5 µM: read-out: FAAH % inhibition at 5 µM
T4 construct: host or cells: U937
T4 sequence (O00519 1-579): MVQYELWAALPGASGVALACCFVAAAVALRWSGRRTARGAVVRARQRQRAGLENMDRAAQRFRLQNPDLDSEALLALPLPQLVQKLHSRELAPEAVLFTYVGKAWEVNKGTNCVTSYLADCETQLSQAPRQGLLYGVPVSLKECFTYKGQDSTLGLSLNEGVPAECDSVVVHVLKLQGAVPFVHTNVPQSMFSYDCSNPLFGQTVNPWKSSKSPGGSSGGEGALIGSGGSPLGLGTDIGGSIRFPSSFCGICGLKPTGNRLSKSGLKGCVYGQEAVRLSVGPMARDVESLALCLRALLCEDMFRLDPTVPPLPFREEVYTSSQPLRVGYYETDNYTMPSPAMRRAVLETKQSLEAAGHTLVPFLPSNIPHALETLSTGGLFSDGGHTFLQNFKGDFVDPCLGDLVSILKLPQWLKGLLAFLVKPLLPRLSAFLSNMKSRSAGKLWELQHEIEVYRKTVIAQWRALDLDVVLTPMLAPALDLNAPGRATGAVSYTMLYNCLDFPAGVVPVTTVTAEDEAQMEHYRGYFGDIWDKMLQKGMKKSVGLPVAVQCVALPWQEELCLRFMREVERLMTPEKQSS
Procedure: FAAH activity was assessed using U937 cell homogenate (source: U937 cells were purchased from ATCC, Manassas, VA, USA). Tested compounds (at the concentrations of 1 and 5 μM) or solvent (≤1% of the final volume) were pre-incubated at 37 °C for 30 min with 100 μg of cell homogenate diluted in assay buffer (10 mM Tris-HCl and 1 mM EDTA, pH 7.6 and 1% w/v fatty acid-free BSA). Successively, a mixture of 99.5 nM […] of AEA and 0.5 nM of [ethanolamine-1-3H]-AEA (40–60 Ci mmol^−1) was added to the homogenate (final concentration of 100 nM) and incubated for 10 min at 37 °C under shaking. After the incubation time, 2 volumes of an ice-cold methanol: chloroform mixture 1:1 (v/v) were added to each sample, vigorously vortexed and centrifuged at 10,000g for 10 min at 4 °C to separate aqueous and organic phases. The aqueous phases were collected and the radioactivity associated with the hydrolysis product [3H]-ethanolamine was measured after addition of 3 ml of scintillation cocktail using the Tri-Carb 2100 TR scintillation counter. Data were collected from three independent experiments performed in triplicate and results were expressed as FAAH activity, relative to that in vehicle-treated samples (=100%).

[7] = AtT20; read-out: Emax ± SEM GIRK hCB2R

Row | Molecule | TRPV4 Efficacy (% ionomycin 4μM) [1] | IC50 [1] | % inhibition A1 (h) ([2]; 10 µM) | % inhibition AT1 (h) ([3]; 10 µM) | CL microsomes mouse [4] | pEC50 ± SEM GIRK hCB2R [5] | FAAH % inhibition at 5 µM ([6]; 5 µM, U937 cell homogenate) | further results
1 | CCCC(C)(C)c1ccc2c(c1)OC(C)(C)[C@@H]1CC=C(C)C[C@@H]21 [JWH133] | 13.6% | > 100 µM | -6% | 7% | 63 µL/min/mg protein | < 5 | – | EC50 ([1]; read-out: TRPV4 Potency EC50): 12 µM; Emax ± SEM GIRK hCB2R [5]: 31 ± 12
2 | CCCCC/C=C\C/C=C\C/C=C\C/C=C\CCCC(=O)NCCO [Anandamide, N-arachidonoylethanolamine] | – | – | – | – | – | – | – | Emax [5, 7]: 51 ± 5%
3 | CCCn1c(C)c(C(=O)c2cccc3ccccc23)c2ccccc21 [JWH015] | – | – | 10% | 21% | 989 µL/min/mg protein | – | – | –
4 | COc1ccc(C(=O)c2c(C)n(CCN3CCOCC3)c3cc(I)ccc23)cc1 [AM630] | < 10% | 3.2 ± 0.1 µM | 28% | 17% | 468 µL/min/mg protein | 5.82 ± 0.08 | – | –
5 | CCCCCCC(C)(C)c1ccc([C@@H]2C[C@H](O)CC[C@H]2CCCO)c(O)c1 [CP55940] | – | – | – | – | – | – | – | inhibition at 10 µM ([2]; 10 µM): 21%; inhibition at 10 µM ([3]; 10 µM): 63%
6 | CN1CCCC[C@@H]1Cn1cc(C(=O)c2cc([N+](=O)[O-])ccc2I)c2ccccc21 [(R)-AM1241] | < 10% | 8.7 ± 0.5 µM | – | – | 314 µL/min/mg protein | < 5 | < 25% | Emax ± SEM GIRK hCB2R ([5]; normalized to CP55940): 47 ± 13%
7 | CN1CCCC[C@H]1Cn1cc(C(=O)c2cc([N+](=O)[O-])ccc2I)c2ccccc21 [(S)-AM1241] | < 10% | 8.6 ± 0.3 µM | 14% | 1% | 640 µL/min/mg protein | 5.6 ± 0.14 | < 25% | Emax ± SEM GIRK hCB2R ([5]; normalized to CP55940): 68 ± 13%
8 | CCCCC/C=C\C/C=C\C/C=C\C/C=C\CCCC(=O)OC(CO)CO [2-AG, 2-arachidonoyl glycerol] | – | – | – | – | – | – | – | Emax [5, 7]: 100 ± 2%
9 | Cc1c(C(=O)c2cccc3ccccc23)c2cccc3c2n1[C@H](CN1CCOCC1)CO3 [WIN55212-2] | < 10% | 16.1 ± 1.7 µM | 10% | 29% | 745 µL/min/mg protein | – | < 25% | –
10 | SR144528 | < 10% | – | 4% | 33% | – | – | – | –
11 | Cc1ccc2c(c1)Cc1c(C(=O)NN3CCCCC3)nn(-c3ccc(Cl)cc3Cl)c1-2 [Gp-1a] | < 10% | 2.2 ± 0.1 µM | 25% | 20% | 134 µL/min/mg protein | – | < 50% and 30–40% | CB2R Selectivity GIRK ([5]; 10^(pEC50 CB2R-pEC50 CB1R)): 5 fold; pEC50 ± SEM GIRK hCB2R ([5]; antagonists in presence of CP55940): 5.99 ± 0.08
12 | CN1CCCCC1Cn1cc(C(=O)c2cc([N+](=O)[O-])ccc2I)c2ccccc21 (racemic) [(rac)-AM1241] | – | – | – | – | 254 µL/min/mg protein | 5.23 ± 0.21 | – | Emax ± SEM GIRK hCB2R ([5]; normalized to CP55940): 59 ± 14%
13 | CCCCCCC(C)(C)c1cc(OC)c(C2=C[C@H]3CC[C@]2(CO)C3(C)C)c(OC)c1 [HU910] | < 10% | > 100 µM | 23% | 37% | 464 µL/min/mg protein | – | < 25% | Emax ± SEM GIRK hCB2R ([5]; normalized to CP55940): 74 ± 2%
14 | Cc1c(C(=O)NN2CCCCC2)nn(-c2ccc(Cl)cc2Cl)c1-c1ccc(I)cc1 [AM251] | < 10% | – | 27% | 36% | – | – | < 50% and 30–40% | –
15 | CCCCCCC(C)(C)c1cc(OC)c([C@@H]2C=C(CO)[C@@H]3C[C@H]2C3(C)C)c(OC)c1 [HU308] | < 10% | > 100 µM | – | – | – | – | – | inhibition at 5 µM [6]: < 25%; inhibition at 10 µM [2]: 5%; inhibition at 10 µM [3]: 53%; Emax ([5]; AtT20, read-out: Emax ± SEM GIRK hCB2R): 82 ± 6%
16 | Cc1c(C(=O)NN2CCCCC2)nn(-c2ccc(Cl)cc2Cl)c1-c1ccc(Cl)cc1 [SR141716A] | < 10% | 2 ± 0.1 µM | – | – | – | – | – | inhibition at 5 µM ([6]; 5 µM, U937 cell homogenate): < 25%

Source: article PMC5216056 (Nature Communications, 2017)
